Converted amounts (≈) assume the structure as drawn. Counter-ions that a name gives are not always drawn. Like-named read-outs stand apart in the source and are kept apart here.
How the values were obtained:
[1] = test system: Enterobacter cloacae AG290; test: MIC by broth microdilution, Enterobacter cloacae; type: cell-based; settings: strain AG290 Enterobacter cloacae; read-out: MIC AG290 E. cloacae
[2] = test system: Acinetobacter baumannii pittii AG225; test: MIC by broth microdilution, Acinetobacter baumannii; type: cell-based; settings: strain AG225 Acinetobacter baumannii pittii
[3] = test system: mitochondrial ribosome (human chimeric); type: biochemical; settings: mitochondrial; Table 3 (Example 2); read-out: IC50 Mit
Text: (§1) The antiribosomal activity of these compounds was investigated with cell-free translation assays using both wild type bacterial ribosomes and hybrid ribosomes carrying eukaryotic decoding A sites enabling the prediction of selectivity.

[4] = test system: cytosolic ribosome (human chimeric); type: biochemical; settings: cytosolic; Table 3 (Example 2); read-out: IC50 Cyt
Text: as §1

[5] = test system: Klebsiella pneumonia AG215; test: MIC by broth microdilution, Klebsiella pneumonia; type: cell-based; settings: Klebsiella pneumoniae; strain AG215 Klebsiella pneumonia; read-out: MIC AG215 K. pneumon
[6] = test system: M. smegmatis SZ380; test: MIC by broth microdilution, M. smegmatis; settings: for MIC: Mycolicibacterium smegmatis, SZ380, read-out: MIC SZ380 M. smegmatis, strain SZ380 Mycobacterium smegmatis
[7] = test system: wild type bacterial ribosomes; test: in-vitro translation assay, bacterial ribosomes; type: biochemical; settings: bacterial ribosome; Table 3 (Example 2); read-out: IC50 Bac
Text: as §1

[8] = test system: E coli wild type; test: MIC by broth microdilution, wild type E coli; type: cell-based; settings: for MIC / MIC50: Escherichia coli
[9] = test system: P aeruginosa; test: MIC by broth microdilution, P aeruginosa isolates; type: cell-based, Pseudomonas aeruginosa; settings: for MIC50: Pseudomonas aeruginosa; for MIC: strain AG220 Pseudomonas aeruginosa ATCC27853, read-out: MIC AG220 P. aerugin
[10] = test system: E coli carrying specific resistance determinants; test: MIC by broth microdilution, E coli carrying specific resistance determinants; type: cell-based; settings: Escherichia coli
[11] = test system: MRSA; test: MIC by broth microdilution, MRSA isolates; type: cell-based; settings: for MIC50: Staphylococcus aureus, MRSA
[12] = ATCC25922, strain AG212 E. coli (ATCC25922), read-out: MIC AG212 E. coli
[13] = strain AG33, Table 1 (Example 2), read-out: MIC50 P aeruginosa AG33
[14] = strain AG86, Table 1 (Example 2), read-out: MIC50 P aeruginosa AG86
[15] = read-out: MIC50 E coli AG036 ANT(4′,4″), AG036 ANT(4′,4″), Table 2B (Example 2)
[16] = read-out: MIC50 E coli AG037 APH(3′)-III, AG037 APH(3′)-III, Table 2B (Example 2)
[17] = read-out: MIC50 E coli AG103 armA, AG103 armA, Table 2B (Example 2)
[18] = read-out: MIC50 E coli pH421 APH(3′)-I, pH421 APH(3′)-I, Table 2B (Example 2)
[19] = read-out: MIC50 E coli pH422 APH(3′)-II, pH422 APH(3′)-II, Table 2B (Example 2)
[20] = read-out: MIC50 E coli pH423 APH(3)-VI, pH423 APH(3)-VI, Table 2B (Example 2)
[21] = read-out: MIC50 E coli pH432 ANT(4′), pH432 ANT(4′), Table 2B (Example 2)

CC1CC(N)C2O[C@H](O[C@@H]3C(N)C[C@@H](N)C(O)[C@H]3O[C@@H]3O[C@H](CO)[C@H](O[C@H]4O[C@@H](CN)[C@@H](O)C(O)C4N)C3O)C(N)[C@@H](O)[C@@H]2O1 (stereo partly drawn) [Compound 139, 4-O-(2′,6′-Diamino-4′,8′-anhydro-2′,6′,7′,9′-tetradeoxy-D-threo-α-D-gluco-nonapyranosyl)-5-O-(β-paramobiosyl)-2-deoxystreptamine.6AcOH]
MIC [1]: 1 µg/mL (≈ 1.53 µM)
MIC [2]: 4 µg/mL (≈ 6.11 µM)
IC50 [3]: 2300 nM
IC50 [4]: 19000 nM
MIC [5]: 0.5 to 1 µg/mL (≈ 0.764 to 1.53 µM)
MIC SZ380 M. smegmatis ([6]; strain SZ380 Mycobacterium smegmatis): 1 to 2 µg/mL
IC50 [7]: 120 nM
MIC50 E coli BM13 (AG06) wt ([8]; BM13 (AG06) wt, Table 2A (Example 2)): 1 to 2 µg/mL
MIC [8, 12]: 1 µg/mL (≈ 1.53 µM)
MIC WT ([8]; WT, Table 3 (Example 2)): 0.5 to 1 µg/mL
MIC50 E coli pH430 WT ([8]; pH430 WT, Table 2B (Example 2)): 0.5-1 μg/ml
MIC50 E coli AG01 ([8]; strain AG01, Table 1 (Example 2)): 2 µg/mL (≈ 3.05 µM)
MIC50 E coli AG03 ([8]; strain AG03, Table 1 (Example 2)): 2 µg/mL (≈ 3.05 µM)
MIC50 E coli AG55 ([8]; strain AG55, Table 1 (Example 2)): 2 µg/mL (≈ 3.05 µM)
MIC50 [9, 13]: 128 µg/mL (≈ 196 µM)
MIC50 [9, 14]: 128 µg/mL (≈ 196 µM)
MIC50 P aeruginosa AG31 ([9]; strain AG31, Table 1 (Example 2)): 32 µg/mL (≈ 48.9 µM)
MIC50 P aeruginosa AG32 ([9]; strain AG32, Table 1 (Example 2)): 32 µg/mL (≈ 48.9 µM)
MIC [9]: 16 to 32 µg/mL (≈ 24.4 to 48.9 µM)
MIC50 ([10]; read-out: MIC50 E coli AG07 AAC(3), AG07 AAC(3), Table 2A (Example 2)): 4 µg/mL (≈ 6.11 µM)
MIC50 ([10]; read-out: MIC50 E coli AG09 AAC(6′), AG09 AAC(6′), Table 2A (Example 2)): 2 µg/mL (≈ 3.05 µM)
MIC50 ([10]; read-out: MIC50 E coli AG036 ANT(4′,4″), AG036 ANT(4′,4″), Table 2A (Example 2)): 2 µg/mL (≈ 3.05 µM)
MIC50 [10, 15]: 0.25 µg/mL (≈ 0.382 µM)
MIC50 [10, 16]: 8 to 16 µg/mL (≈ 12.2 to 24.4 µM)
MIC50 ([10]; read-out: MIC50 E coli AG037 APH(3′,5″), AG037 APH(3′,5″), Table 2A (Example 2)): 32 to 64 µg/mL (≈ 48.9 to 97.8 µM)
MIC50 ([10]; read-out: MIC50 E coli AG103 ArmA, AG103 ArmA, Table 2A (Example 2)): 2 µg/mL (≈ 3.05 µM)
MIC50 [10, 17]: 0.5 µg/mL (≈ 0.764 µM)
MIC50 ([10]; read-out: MIC50 E coli AG105 AAC(2′), AG105 AAC(2′), Table 2A (Example 2)): 2 to 4 µg/mL (≈ 3.05 to 6.11 µM)
MIC50 ([10]; read-out: MIC50 E coli pH414 AAC(6′)-I, pH414 AAC(6′)-I, Table 2B (Example 2)): 1 µg/mL (≈ 1.53 µM)
MIC50 ([10]; read-out: MIC50 E coli pH415 AAC(6′)-II, pH415 AAC(6′)-II, Table 2B (Example 2)): 1 µg/mL (≈ 1.53 µM)
MIC50 [10, 18]: > 32 µg/mL
MIC50 [10, 19]: 8 µg/mL (≈ 12.2 µM)
MIC50 [10, 20]: 1 to 2 µg/mL (≈ 1.53 to 3.05 µM)
MIC50 [10, 21]: 1 µg/mL (≈ 1.53 µM)
MIC ([10]; read-out: MIC AAC(6′)): 1 µg/mL (≈ 1.53 µM)
MIC ([10]; read-out: MIC ANT(4′)): 0.25 µg/mL (≈ 0.382 µM)
MIC ([10]; read-out: MIC APH(3′)-II): 8 µg/mL (≈ 12.2 µM)
MIC ([10]; read-out: MIC APH(3′)-VI): 1 to 2 µg/mL (≈ 1.53 to 3.05 µM)
MIC50 MRSA AG38 ([11]; strain AG38, Table 1 (Example 2)): 4 µg/mL (≈ 6.11 µM)
MIC50 MRSA AG39 ([11]; strain AG39, Table 1 (Example 2)): 4 µg/mL (≈ 6.11 µM)
MIC50 MRSA AG42 ([11]; strain AG42, Table 1 (Example 2)): 2 µg/mL (≈ 3.05 µM)
MIC50 MRSA AG44 ([11]; strain AG44, Table 1 (Example 2)): 2 µg/mL (≈ 3.05 µM)

CC(C)(O)C1O[C@H](O[C@@H]2C(N)C[C@@H](N)C(O)[C@H]2O[C@@H]2O[C@H](CO)[C@H](O[C@H]3O[C@@H](CN)[C@@H](O)C(O)C3N)C2O)C(N)[C@@H](O)[C@@H]1O (some centres unmarked) [Compound 159]
MIC [1]: 2 µg/mL (≈ 3.11 µM)
MIC [2]: 4 µg/mL (≈ 6.21 µM)
MIC [5]: 1 to 2 µg/mL (≈ 1.55 to 3.11 µM)
MIC [6]: 2 µg/mL (≈ 3.11 µM)
MIC [8, 12]: 4 µg/mL (≈ 6.21 µM)
MIC50 ([8]; BM13 (AG06) wt, Table 2A (Example 2), read-out: MIC50 E coli BM13 (AG06) wt): 4 µg/mL (≈ 6.21 µM)
MIC50 ([8]; pH430 WT, Table 2B (Example 2), read-out: MIC50 E coli pH430 WT): 1 to 2 µg/mL (≈ 1.55 to 3.11 µM)
MIC50 ([8]; strain AG01, Table 1 (Example 2), read-out: MIC50 E coli AG01): 8 µg/mL (≈ 12.4 µM)
MIC50 ([8]; strain AG03, Table 1 (Example 2), read-out: MIC50 E coli AG03): 8 µg/mL (≈ 12.4 µM)
MIC50 ([8]; strain AG55, Table 1 (Example 2), read-out: MIC50 E coli AG55): 8 µg/mL (≈ 12.4 µM)
MIC50 ([9]; strain AG31, Table 1 (Example 2), read-out: MIC50 P aeruginosa AG31): > 128 µg/mL
MIC50 ([9]; strain AG32, Table 1 (Example 2), read-out: MIC50 P aeruginosa AG32): > 128 µg/mL
MIC50 [9, 13]: > 128 µg/mL
MIC50 [9, 14]: > 128 µg/mL
MIC [9]: > 64 µg/mL
MIC50 [10, 15]: 16 to 32 µg/mL (≈ 24.9 to 49.7 µM)
MIC50 [10, 16]: > 64 µg/mL
MIC50 [10, 17]: 4 to 8 µg/mL (≈ 6.21 to 12.4 µM)
MIC50 [10, 18]: > 64 µg/mL
MIC50 [10, 19]: > 64 µg/mL
MIC50 [10, 20]: 8 µg/mL (≈ 12.4 µM)
MIC50 [10, 21]: 2 µg/mL (≈ 3.11 µM)
MIC50 ([11]; strain AG38, Table 1 (Example 2), read-out: MIC50 MRSA AG38): 8 to 16 µg/mL (≈ 12.4 to 24.9 µM)
MIC50 ([11]; strain AG39, Table 1 (Example 2), read-out: MIC50 MRSA AG39): > 128 µg/mL
MIC50 ([11]; strain AG42, Table 1 (Example 2), read-out: MIC50 MRSA AG42): > 128 µg/mL
MIC50 ([11]; strain AG44, Table 1 (Example 2), read-out: MIC50 MRSA AG44): 4 to 8 µg/mL (≈ 6.21 to 12.4 µM)

CC(=O)NC[C@H]1O[C@@H](O[C@@H]2C(O)[C@H](N)CC(N)[C@H]2O[C@H]2OC(CO)[C@@H](O)[C@H](O)C2N)C(O)[C@H]1O[C@H]1O[C@@H](CN)[C@@H](O)C(O)C1N (some centres unmarked) [Compound 165, 5″-Acetamido-5″-deoxy-paromomycin-acetate salt]
MIC [1]: 8 µg/mL
MIC [2]: 8 to 16 µg/mL
MIC [5]: 8 µg/mL
MIC [6]: 32 µg/mL
MIC ([8]; AG006 wt, Table 2 (Example 1), read-out: MIC E coli AG006 wt): 4 to 8 µg/mL
MIC [8, 12]: 16 µg/mL
MIC ([8]; clinical isolate AG160 WT, Table 2 (Example 4), read-out: MIC AG160 E. coli WT): 8 µg/mL
MIC ([8]; engineered strain pH430 WT, Table 2 (Example 4), read-out: MIC pH430 E. coli WT): 8 to 16 µg/mL
MIC50 ([8]; strain AG01, Table 1 (Example 1), read-out: MIC50 E coli AG01): 64 µg/mL
MIC50 ([8]; strain AG03, Table 1 (Example 1), read-out: MIC50 E coli AG03): 32 to 64 µg/mL
MIC50 ([8]; strain AG55, Table 1 (Example 1), read-out: MIC50 E coli AG55): 32 µg/mL
MIC50 ([9]; strain AG31, Table 1 (Example 1), read-out: MIC50 P aeruginosa AG31): > 128 µg/mL
MIC50 ([9]; strain AG32, Table 1 (Example 1), read-out: MIC50 P aeruginosa AG32): > 128 µg/mL
MIC50 ([9]; strain AG33, Table 1 (Example 1), read-out: MIC50 P aeruginosa AG33): > 128 µg/mL
MIC50 ([9]; strain AG86, Table 1 (Example 1), read-out: MIC50 P aeruginosa AG86): > 128 µg/mL
MIC [9]: > 64 µg/mL
MIC ([10]; read-out: MIC AG037 E. coli APH(3′)-III): > 64 µg/mL
MIC ([10]; read-out: MIC pH421 E. coli APH(3′)-I): > 64 µg/mL
MIC ([10]; read-out: MIC pH422 E. coli APH(3′)-II): > 64 µg/mL
MIC ([10]; read-out: MIC pH423 E. coli APH(3′)-VI): > 64 µg/mL
MIC50 ([11]; strain AG38, Table 1 (Example 1), read-out: MIC50 MRSA AG38): 16 to 32 µg/mL
MIC50 ([11]; strain AG39, Table 1 (Example 1), read-out: MIC50 MRSA AG39): > 128 µg/mL
MIC50 ([11]; strain AG42, Table 1 (Example 1), read-out: MIC50 MRSA AG42): > 128 µg/mL
MIC50 ([11]; strain AG44, Table 1 (Example 1), read-out: MIC50 MRSA AG44): 16 µg/mL

Reference: patent US11466044B2 (WAYNE STATE UNIVERSITY, priority 2017, dated 2022)
